The conditions of data set [1]: cited from earlier work.
The conditions of data set [2]: cited from earlier work. This is another data set of the same source.
The conditions of data set [3]: in vivo; cited from earlier work.
The conditions of data set [4]: in vivo; cited from earlier work. The source holds these as a separate data set.
The nature of data set [5]: pharmacokinetics and bioavailability after intravenous and topical administration. The class given is in vivo, Goetingen mini-pigs. Particulars: intravenous administration at 1 mg/kg.

Counter-ions that a name gives are not always drawn. Like-named read-outs stand apart in the source and are kept apart here.

With `CCCCNc1ccc(C(=O)OCCN(C)C)cc1` [Tetracaine Hydrochloride], the Water solubility in data set [1] was 150 mg/mL.

Turning to `CCN(CC)CC(=O)Nc1c(C)cccc1C` [lidocaine, Lidocaine], the “extension of the effect” value in data set [2] (addition of epinephrine (5 μg/ml)) is reported as 50%. In data set [2] (aerosol), the duration of effect was 5 to 6 min and the onset of effect is 1 min. Moreover, in data set [2] (endotracheal administration), the “duration of anti-arrhythmic effect” value is 30 to 50 min, the “onset of anti-arrhythmic effect” value is 10 to 15 s and the “time to peak anti-arrhythmic effect” value is 1 to 2 min. For the same compound, in data set [2] (epidural administration), the duration of effect entry is on record as “up to 4 hours” and the onset of effect is 5 to 15 min. Also, in data set [2] (gel), the duration of effect is 30 to 60 min and the onset of effect was 2 to 3 min. Further, in data set [2] (i.v. administration), the “duration of anti-arrhythmic effect” value was 10 to 20 min and the “onset of anti-arrhythmic effect” value was 45 to 90 s. Further, in data set [2] (infiltration anesthesia), the duration of effect is 30 to 60 min and the onset of effect was 0.5 to 1 min. In data set [3], the “absorbed from the gastrointestinal tract” value is listed as 30-40% and the “excreted by the kidneys unchanged” value is reported as 10%.

For the compound `CCCCNc1ccc(C(=O)OCCN(C)C)cc1` [tetracaine, Tetracaine], the hydrolysis in plasma entry in data set [4] was “rapid”. Further, in data set [5], the “clearance (printed: purified)” value is “highly purified” and the “distribution (printed: dispersed)” value is “highly dispersed”.
